# Assays:
# Format in all cases: cell-based
# [1] = molecular target: T1, CD32/CD14 (Uchm1) (Homo sapiens, UniProt P08571); assay: FRET co-assembly of CD32 with CD14 on monocytes; details: LPS 4 nM, ceramide 40 nM, LTA 1 μg/ml, HSP70 7 nM; mean ± SD of 10 experiments; >5% = positive transfer
# T1 construct: endogenous in cells; host or cells: human monocytes in whole blood
# T1 sequence (P08571 20-345 limits assumed): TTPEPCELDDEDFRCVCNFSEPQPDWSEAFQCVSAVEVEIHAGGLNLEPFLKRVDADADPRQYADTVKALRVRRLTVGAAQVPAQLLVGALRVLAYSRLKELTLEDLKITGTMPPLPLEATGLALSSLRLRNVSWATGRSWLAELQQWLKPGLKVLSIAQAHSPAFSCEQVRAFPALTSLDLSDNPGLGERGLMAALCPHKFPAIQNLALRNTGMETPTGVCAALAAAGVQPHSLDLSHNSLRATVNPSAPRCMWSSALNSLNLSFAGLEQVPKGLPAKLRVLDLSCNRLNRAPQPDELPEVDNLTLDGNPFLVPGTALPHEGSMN
# Procedure: (§1) Aliquots […] of whole blood were incubated with the following stimulatory compounds at 37° C. for 15 minutes: LPS of Salmonella minnesota (0.1-10 nM, Mw 10 kDa), ceramide (primarily stearic acid and nervonic acid) and sulfogalactosyl ceramide (SG-cer, […]), both of which tested LPS free in the LAL assay (Cer, 1 nM-5.5 mM), lysophosphatidyl choline (lyso-PC, 10 mM), phorbol-12-myristate-13-acetate (PMA, 1 mM), N-formyl-L-methionyl-L-leucyl-L-phenyl alamine (fMLP, 1 mM), PE, PC, PI and PS liposomes (10 mm) which had been prepared as described above. All reagents were obtained from Sigma. In addition, the cells were stimulated with HPS70 (7 nM), dHSP70 (7 nM) and SG-cer+dHSP70 (40 nM+7 nM). After incubation, the cells were washed with cold PBS containing 0.1% of NaN3. The synthetic LPS antagonist lipid IVa (“compound-406”, 1-400 ng/ml) and lipid A derived from E. coli (1-100 ng/ml) were made available by courtesy of Dr. S. Kusumoto. The cells were pre-incubated with the LPS antagonist at 37° C. for 15 minutes and then stimulated with LPS at the same temperature (without washing).
# (§2) Whole blood cells which had been stimulated or washed ex vivo […] were incubated on ice for 15 minutes with saturation concentrations of monoclonal fluorochrom-conjugated or biotinylated antibodies. The monoclonal antibodies CD11a (clone 25.3.1), CD16a (clone 3G8). […]
# [2] = molecular target: T2, CD18(7E4)/CD14 (×8) (Homo sapiens, UniProt P08571); assay: FRET co-assembly of CD18 with CD14 on monocytes; details: LPS 4 nM, ceramide 40 nM, LTA 1 μg/ml, HSP70 7 nM; mean ± SD of 10 experiments; >5% = positive transfer
# T2 construct: endogenous in cells; host or cells: human monocytes in whole blood
# T2 sequence (P08571 20-345 limits assumed): T1 sequence (P08571 20-345 limits assumed)
# Procedure: as §1, §2
# [3] = molecular target: T3, CD47/CD14 (Uchm1) (Homo sapiens, UniProt P08571); assay: FRET co-assembly of CD47 with CD14 on monocytes; details: LPS 4 nM, ceramide 40 nM, LTA 1 μg/ml; mean ± SD of 10 experiments; >5% = positive transfer
# T3 construct: endogenous in cells; host or cells: human monocytes in whole blood
# T3 sequence (P08571 20-345 limits assumed): T1 sequence (P08571 20-345 limits assumed)
# Procedure: as §1, §2
# [4] = molecular target: T4, CD55/CD14 (Uchm1) (Homo sapiens, UniProt P08571); assay: FRET co-assembly of CD55 with CD14 on monocytes; details: LPS 4 nM, ceramide 40 nM, LTA 1 μg/ml, HSP70 7 nM; mean ± SD of 10 experiments; >5% = positive transfer
# T4 construct: endogenous in cells; host or cells: human monocytes in whole blood
# T4 sequence (P08571 20-345 limits assumed): T1 sequence (P08571 20-345 limits assumed)
# Procedure: as §1, §2
# [5] = molecular target: T5, CD16/CD14 (Uchm1) (Homo sapiens, UniProt P08571); assay: FRET co-assembly of CD16 with CD14 on monocytes; details: LPS 4 nM, ceramide 40 nM, LTA 1 μg/ml; mean ± SD of 10 experiments; >5% = positive transfer
# T5 construct: endogenous in cells; host or cells: human monocytes in whole blood
# T5 sequence (P08571 20-345 limits assumed): T1 sequence (P08571 20-345 limits assumed)
# Procedure: as §1, §2
# [6] = molecular target: T6, CD81/CD14 (×8) (Homo sapiens, UniProt P08571); assay: FRET co-assembly of CD81 with CD14 on monocytes; details: LPS 4 nM, ceramide 40 nM, LTA 1 μg/ml, HSP70 7 nM, mean ± SD of 10 experiments
# T6 construct: endogenous in cells; host or cells: human monocytes in whole blood (donors; also sepsis and CAD patients)
# T6 sequence (P08571 20-345 limits assumed): T1 sequence (P08571 20-345 limits assumed)
# Procedure: as §1
# Whole blood cells which had been stimulated or washed ex vivo […] were incubated on ice for 15 minutes with saturation concentrations of monoclonal fluorochrom-conjugated or biotinylated antibodies. The monoclonal antibodies CD11a (clone 25.3.1), CD16a (clone 3G8). CD18 (clone 7E4), CD14 (clone RMO52), CD33 (clone My9-RD1). CD81 (clone Js64) were obtained as R-phyco-erythrine (R-PE) conjugates and CD25 (clone B1.49.9) in biotinylated form from Coulter/Immunotech (Krefeld, Germany). CD11b (clone d12), CD11c (clone S-HCL-3), CD36 (clone CB38), CD47 (clone B6H12), CD81 (clone JS-81) and (Cd55 (clone IA10) in biotinylated form and Streptavidin-R-PE were purchased from Becton/Dickinson/Pharningen (Heidelberg, Germany) CD18 (clone IB4) in biontinylated form and CD40 (clone EA-5) as R-PE conjugate were obtained from Alexis (Grünberg, Germany) and CD14 (clones ×8 and Uchml) and CD3 (clone Cris-7) in biotinylated form and Streptavidin-Cy5 (Sa-Cy5) from Dianova (Hamburg, Germany), CD32 (clone C1KM5) and CD64 (clone 10.1) were obtained as R-PE conjugates from Caltag (Burlingame, U.S.A.) and CD91 (clone 8G1) in biotinylated form from Proen (Heidelberg, Germany). A monoclonal anti-TLRA antibody (clone HTA125) was kindly provided by Dr. Kensuke. Since no energy transfer between the antibodies directed against the CD14/CD11a and CD14/CD11c pairs was detectable either on resting or on stimulated cells, these antibody combinations were not characterised further. […]
# [7] = molecular target: T7, TLR-4/CD14 (×8) (Homo sapiens, UniProt P08571); assay: FRET co-assembly of TLR-4 with CD14 on monocytes; details: LPS 4 nM, ceramide 40 nM, LTA 1 μg/ml, HSP70 7 nM; mean ± SD of 10 experiments; >5% = positive transfer
# T7 construct: endogenous in cells; host or cells: human monocytes in whole blood
# T7 sequence (P08571 20-345 limits assumed): T1 sequence (P08571 20-345 limits assumed)
# Procedure: as §1, §2
# [8] = molecular target: T8, CD11b and CD14 (Homo sapiens, UniProt P08571); assay: FRET flow cytometry: co-assembly of CD11b and CD14 on monocytes
# T8 construct: endogenous in cells; host or cells: human monocytes in heparinised whole blood (healthy donors and patients)
# T8 sequence (P08571 20-345 limits assumed): T1 sequence (P08571 20-345 limits assumed)
# Procedure: as §1
# Whole blood cells which had been stimulated or washed ex vivo […] were incubated on ice for 15 minutes with saturation concentrations of monoclonal fluorochrom-conjugated or biotinylated antibodies. The monoclonal antibodies CD11a (clone 25.3.1), CD16a (clone 3G8). CD18 (clone 7E4), CD14 (clone RMO52), CD33 (clone My9-RD1). CD81 (clone Js64) were obtained as R-phyco-erythrine (R-PE) conjugates and CD25 (clone B1.49.9) in biotinylated form from Coulter/Immunotech (Krefeld, Germany). CD11b (clone d12), CD11c (clone S-HCL-3), CD36 (clone CB38), CD47 (clone B6H12), CD81 (clone JS-81) and (Cd55 (clone IA10) in biotinylated form and Streptavidin-R-PE were purchased from Becton/Dickinson/Pharningen (Heidelberg, Germany) CD18 (clone IB4) in biontinylated form and CD40 (clone EA-5) as R-PE conjugate were obtained from Alexis (Grünberg, Germany) and CD14 (clones ×8 and Uchml) and CD3 (clone Cris-7) in biotinylated form and Streptavidin-Cy5 (Sa-Cy5) from Dianova (Hamburg, Germany), CD32 (clone C1KM5) and CD64 (clone 10.1) were obtained as R-PE conjugates from Caltag (Burlingame, U.S.A.) and CD91 (clone 8G1) in biotinylated form from Proen (Heidelberg, Germany). A monoclonal anti-TLRA antibody (clone HTA125) was kindly provided by Dr. Kensuke. Since no energy transfer between the antibodies directed against the CD14/CD11a and CD14/CD11c pairs was detectable either on resting or on stimulated cells, these antibody combinations were not characterised further.
# Lysis of erythrocytes and washing were carried out as described (Rothe et al., Thromb. Vasc. Biol. 16 (1996), 1437-1447). After the last washing step, the samples were divided and part of each sample incubated with a saturating amount of SA-Cy5 on ice for 15 minutes and washed before measuring.
# For energy transfer experiments, […] aliquots of whole blood were treated with cholesterol/methyl cyclodextrine (C/C) (100 mg/ml/4.6 mg/ml) or 2-hydroxypropyl-β-cyclodextrine (0.15 mg/ml) at 37° C. for 30 minutes and then stimulated further with LPS (4 nM) or ceramide (40 nM) as described above. The energy transfer between CD14 and CD11b was measured.
# A “FACSCalibur” flow cytometer (Becton Dickinson) equipped with an air-cooled 15 mW argon laser (excitation wavelength 488 nm), a diode laser (excitation wavelength […]) and standard filters [channel 1 (FITC): 530/30 nm band pass filter; channel 2 (R-PE being used as donor dye); 585/47 nm band pass filter; channel 3 (PerCP): pass having a length of >670 nm; and channel 4 (Cy5being used as recipient dye): 661/16 nm bad pass filter] was used. The Cellquest software (Becton Dickinson) was used for the measurements. […] Measurement was conducted without compensation. 50,000 leukocytes were required in the “list” modus, forward scattering (FSC) being used as a trigger signal. […]
# [9] = molecular target: T9, CD36/CD14 (×8) (Homo sapiens, UniProt P08571); assay: FRET co-assembly of CD36 with CD14 on monocytes; details: LPS 4 nM, ceramide 40 nM, LTA 1 μg/ml, HSP70 7 nM; mean ± SD of 10 experiments; >5% = positive transfer
# T9 construct: endogenous in cells; host or cells: human monocytes in whole blood
# T9 sequence (P08571 20-345 limits assumed): T1 sequence (P08571 20-345 limits assumed)
# Procedure: as §1, §2
# [10] = molecular target: T10, CD64/CD14 (Uchm1) (Homo sapiens, UniProt P08571); assay: FRET co-assembly of CD64 with CD14 on monocytes; details: LPS 4 nM, ceramide 40 nM, LTA 1 μg/ml, HSP70 7 nM; mean ± SD of 10 experiments; >5% = positive transfer
# T10 construct: endogenous in cells; host or cells: human monocytes in whole blood
# T10 sequence (P08571 20-345 limits assumed): T1 sequence (P08571 20-345 limits assumed)
# Procedure: as §1, §2
substance,measurement,setting,value
ceramide,energy transfer CD32/CD14 (Uchm1),[1],11.6 ± 3.4%
same,energy transfer CD18(7E4)/CD14 (×8),[2],5.4 ± 0.8 %
same,energy transfer CD47/CD14 (Uchm1),[3],11.9 ± 3.1%
same,energy transfer CD55/CD14 (Uchm1),[4],9.7 ± 1.5%
same,energy transfer CD16/CD14 (Uchm1),[5],3.2 ± 5.6%
same,energy transfer CD81 (JS-81)/CD14 (×8),[6]; CD81 clone JS-81,3.1 ± 2.4%
same,energy transfer CD81 (Js64)/CD14 (×8),[6]; CD81 clone Js64,2.8 ± 0.7%
same,energy transfer TLR-4/CD14 (×8),[7],3.2 ± 2.5%
same,co-assembly of CD11b and CD14 (energy transfer between monoclonal antibodies),"[8]; human monocytes in whole blood, stimulation with the substance alone, 37° C. 15 minutes",induces the transfer of CD14 into a receptor cluster
same,EC50,"[8]; human monocytes, FIG. 1b, read-out: EC50cer, ceramide-induced energy transfer between antibodies against CD11b and CD14 (clone ×8)",~0.1 nM
same,energy transfer CD36/CD14 (×8),[9],10.1 ± 1.0 %
same,energy transfer CD64/CD14 (Uchm1),[10],10.4 ± 1.3%

# From US20030165919A1, “Method for the analysis of exogenic and endogenic cell activiation based on measuring the aggregation of receptors” (priority 2000, published 2003)
